Laboratory results: publication PMC6694155, “PTPσ inhibitors promote hematopoietic stem cell regeneration” (Nature Communications, 2019)
“And” between values parts separate entries of the source, which are not always exact repeats. Equal values may be shown once.

Assays:
[1] = target: T1, PTPMEG1 (Megakaryocyte Protein-Tyrosine Phosphatase 1) (Homo sapiens, UniProt P29074); experiment: PhosphataseProfiler screen: PTPMEG1; format: biochemical; conditions: replicates
T1 construct: purchased Eurofins Pharma Discovery Services UK
Experimental: Compound DJ001 was evaluated in a PhosphataseProfiler™ screen at 10 μM and 1 μM (2.7 μg/mL and 0.27 μg/mL) concentrations at Eurofins Pharma Discovery Services UK (Study number UK022-0004033) against a panel of 21 Phosphatases. In each experiment, the respective reference antagonist/agonist was tested directly with DJ001 and the data were compared with historical values determined at Eurofins. DJ001 compound inhibition was calculated as percentage inhibition of the enzymatic activity compared with control.

[2] = Pharmacokinetic study for DJ001; format: in vivo, mouse; conditions: for concentration of DJ001 in the peripheral blood: 5 mg/kg single subcutaneous dose
Experimental: PK studies for DJ001 were performed at Cyprotex (Study Number CYP1426-R1) under non-good laboratory practice conditions. Mice were subcutaneously injected with a single dose of 5 mg/kg DJ001 (in 10% DMSO, 40% phosphate-buffered saline (PBS), 50% polyethylene glycol and plasma samples were collected at 0.08, 0.25, 0.5, 1, 2, 4, 8, and 24 h. Samples were crashed with three volumes of methanol and analytical internal standard (propranolol). Supernatant was subjected to liquid chromatography-mass spectrometry/mass spectrometry (MS/MS) using an acetonitrile-water gradient system and electrospray ionization in multiple reaction monitoring mode for MS detection. All plasma samples were compared with an internal calibration curve prepared in mouse blank plasma.

[3] = system: BM KSL cells; experiment: Cytokine analysis in vitro (BM KSL cell culture supernatants); format: cell-based, mouse; set-up: PTN: unit not given beside the values; IL-5 / IL-6 / IL-9 / IL-10 / IL-12(p40) / IL-12(p70) / IL-13 / IL-17 / IP-10 / CXCL12 / EGF / DKK / G-CSF / Eotaxin / GM-CSF / KC / MCP-1 / MIP-1a / M-CSF / MIP-2 / MIG / RANTES / VEGF / TNF-a / IFN-g / IL-1a / IL-1b / IL-2 / IL-4 / IL-3: unit not given here; conditions: for IFN-g / IL-1a / IL-1b / IL-2 / IL-3 / IL-4 / IL-5 / IL-6 / IL-9 / IL-10 / IL-12(p40) / IL-12(p70) / IL-13 / IL-17 / IP-10: Supplementary Figure 6a; for CXCL12 / DKK / EGF / Eotaxin / G-CSF / GM-CSF / KC / M-CSF / MCP-1 / MIG / MIP-1a / MIP-2 / PTN / RANTES / TNF-a / VEGF: Supplementary Figure 6b
Experimental: For in vitro cytokine measurements, 3.5 × 10^4 BM KSL cells were irradiated with 300 cGy and cultured in TSF media with and without 1 μg/mL DJ001. Non-irradiated KSL cells were cultured in TSF media with and without 1 μg/mL DJ001. At 12 h of culture, culture supernatants were collected for analysis. For in vivo cytokine measurements, adult C57BL/6 mice were irradiated with 750 cGy TBI and then treated with 5 mg/kg of DJ001 or vehicle, subcutaneously, from day + 1 to day + 5. Non-irradiated mice received the identical regimen of 5 mg/kg DJ001 or vehicle for 5 days. Mice were killed and BM cells were collected into IMDM. Cells were pelleted and the BM supernatant was collected and sent to the UCLA Immune Assessment Core for cytokine analysis. All samples were tested on a mouse 32-plex Cytokine/Chemokine panel platform from EMD Milipore using Luminex’s xMAP® immunoassay technology (Luminex, Inc.). In addition, the following cytokine levels were assessed by solid-phase ELISA assay according to the manufacturer’s description: CXCL12 (R&D Systems), SCF (R&D Systems), Thrombopoietin (TPO) (R&D Systems), PTN (Biomatik), DKK1 (R&D Systems), and EGF (R&D Systems).

T1 sequence (P29074 whole entry): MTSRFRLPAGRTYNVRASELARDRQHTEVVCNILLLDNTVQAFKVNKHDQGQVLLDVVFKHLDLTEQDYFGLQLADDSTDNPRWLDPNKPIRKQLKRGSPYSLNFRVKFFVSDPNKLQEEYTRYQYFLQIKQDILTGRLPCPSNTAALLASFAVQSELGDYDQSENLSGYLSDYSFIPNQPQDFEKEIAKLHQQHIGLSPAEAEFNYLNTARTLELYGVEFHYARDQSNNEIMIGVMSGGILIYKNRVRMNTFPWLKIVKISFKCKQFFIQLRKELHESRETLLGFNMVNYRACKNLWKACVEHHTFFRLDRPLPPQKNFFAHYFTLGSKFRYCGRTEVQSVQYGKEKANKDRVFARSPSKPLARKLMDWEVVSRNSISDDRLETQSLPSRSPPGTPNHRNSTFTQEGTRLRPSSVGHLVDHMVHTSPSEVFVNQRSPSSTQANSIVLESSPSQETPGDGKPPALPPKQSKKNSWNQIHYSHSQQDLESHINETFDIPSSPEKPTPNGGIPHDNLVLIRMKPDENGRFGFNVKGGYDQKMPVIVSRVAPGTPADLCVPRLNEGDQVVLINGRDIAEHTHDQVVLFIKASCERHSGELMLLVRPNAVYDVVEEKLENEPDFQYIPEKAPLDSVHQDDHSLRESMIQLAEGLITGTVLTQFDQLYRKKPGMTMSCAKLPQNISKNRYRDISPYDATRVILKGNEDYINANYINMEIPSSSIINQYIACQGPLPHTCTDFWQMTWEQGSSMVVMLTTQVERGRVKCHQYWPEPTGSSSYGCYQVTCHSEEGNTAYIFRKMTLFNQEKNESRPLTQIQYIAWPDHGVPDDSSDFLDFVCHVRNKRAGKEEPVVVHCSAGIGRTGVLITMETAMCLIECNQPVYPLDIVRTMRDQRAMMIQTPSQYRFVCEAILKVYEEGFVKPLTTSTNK

With O=C(/C=C\Nc1cccc([N+](=O)[O-])c1)c1ccccc1 [DJ001, (Z)-3-((3-nitrophenyl)amino)-1-phenylprop-2-en-1-one] as the compound, how does the “Supplementary Figure 1: PTP MEG1 activity” value ([1]; 2.7 μg/mL DJ001) read?
Its value is 100 and 92 and 105.

What about the “Supplementary Figure 1: PTP MEG1 activity” value ([1]; 0.27 g/mL DJ001) of the same compound?
The value was 103 and 114 and 105.

What about the “concentration of DJ001 in the peripheral blood” value ([2]; through + 24 hours following administration) of the same compound?
Its value is “approximately 10 ng/ml”.

What about the “concentration of DJ001 in the peripheral blood” value ([2]; within 1 hour after administration) of the same compound?
Its value is 100 ng/mL.

What about the “DJ001 concentrations in the PB” value ([2]; 5 mg/kg subcutaneously × 1, over several hours post injection) of the same compound?
The value was 10 to 100 ng/mL.

And the “Supplementary Figure 4f: Concentration” value ([2]; 0.08 Hours, individual mice)?
The value was 170 ng/mL and 54.7 ng/mL and 61.1 ng/mL.

And the “Supplementary Figure 4f: Concentration” value ([2]; 0.25 Hours, individual mice)?
The value was 159 ng/mL and 93.5 ng/mL.

What about the “Supplementary Figure 4f: Concentration” value ([2]; 0.5 Hours, individual mice) of the same compound?
The value was 113 ng/mL and 133 ng/mL and 60.5 ng/mL.

And the “Supplementary Figure 4f: Concentration” value ([2]; 1 Hours, individual mice)?
The value was 40.5 ng/mL and 40.7 ng/mL.

What about the “Supplementary Figure 4f: Concentration” value ([2]; 2 Hours, individual mice) of the same compound?
Its value is 35.3 ng/mL and 19.5 ng/mL.

And the “Supplementary Figure 4f: Concentration” value ([2]; 4 Hours, individual mice)?
The value was 5.8 ng/mL and 6.7 ng/mL.

What about the “Supplementary Figure 4f: Concentration” value ([2]; 8 Hours, individual mice) of the same compound?
Its value is 1.7 ng/mL and 7.8 ng/mL and 12.4 ng/mL.

And the “Supplementary Figure 4f: Concentration” value ([2]; 24 Hours, individual mice)?
Its value is 2.8 ng/mL and 2.3 ng/mL and 8.9 ng/mL.

What about the concentration at 0.25 h ([2]; C57BL/6, mouse, plasma, subcutaneous, 5 mg/kg, 0.25 Hours, individual mice, read-out: Supplementary Figure 4f: Concentration) of the same compound?
The concentration at 0.25 h was 113 ng/mL.

What about the concentration at 1 h ([2]; C57BL/6, mouse, plasma, subcutaneous, 5 mg/kg, 1 Hours, individual mice, read-out: Supplementary Figure 4f: Concentration) of the same compound?
Its concentration at 1 h is 79.5 ng/mL.

What about the concentration at 2 h ([2]; C57BL/6, mouse, plasma, subcutaneous, 5 mg/kg, 2 Hours, individual mice, read-out: Supplementary Figure 4f: Concentration) of the same compound?
The concentration at 2 h was 32.9 ng/mL.

What about the concentration at 4 h ([2]; C57BL/6, mouse, plasma, subcutaneous, 5 mg/kg, 4 Hours, individual mice, read-out: Supplementary Figure 4f: Concentration) of the same compound?
Its concentration at 4 h is 6.5 ng/mL.

What about the IFN-g ([3]; 300cGy) of the same compound?
The IFN-g was 0.77.

And the IL-1a ([3]; 300cGy)?
The IL-1a was 2.07 and 2.11.

And the IL-1b ([3]; 300cGy)?
Its IL-1b is 1.39.

And the IL-2 ([3]; 300cGy)?
Its IL-2 is 2.9.

And the IL-3 ([3]; 300cGy)?
Its IL-3 is 1.

What about the IL-4 ([3]; 300cGy) of the same compound?
The IL-4 was 0.44.

And the IL-5 ([3]; 300cGy)?
Its IL-5 is 2.67.

What about the IL-6 ([3]; 300cGy) of the same compound?
The IL-6 was 0.77 and 1.04.

And the IL-9 ([3]; 300cGy)?
The IL-9 was 36.91.

And the IL-10 ([3]; 300cGy)?
Its IL-10 is 2.29.

And the “IL-12(p40)” value ([3]; 300cGy)?
Its value is 1.77 and 1.44 and 2.31.

And the “IL-12(p70)” value ([3]; 300cGy)?
The value was 3.42.

What about the IL-13 ([3]; 300cGy) of the same compound?
The IL-13 was 9.36.

And the IL-17 ([3]; 300cGy)?
The IL-17 was 1.92.

What about the IP-10 ([3]; 300cGy) of the same compound?
The IP-10 was 2.77.

What about the CXCL12 ([3]; 300cGy) of the same compound?
Its CXCL12 is 0.

What about the DKK ([3]; 300cGy) of the same compound?
The DKK was 0.

What about the EGF ([3]; 300cGy) of the same compound?
Its EGF is 0.

What about the Eotaxin ([3]; 300cGy) of the same compound?
Its Eotaxin is 2.69.

What about the G-CSF ([3]; 300cGy) of the same compound?
Its G-CSF is 0.01.

What about the GM-CSF ([3]; 300cGy) of the same compound?
Its GM-CSF is 5.03.

What about the KC ([3]; 300cGy) of the same compound?
The KC was 1.04.

What about the M-CSF ([3]; 300cGy) of the same compound?
The M-CSF was 1.85 and 2.24.

What about the MCP-1 ([3]; 300cGy) of the same compound?
The MCP-1 was 4.52.

What about the MIG ([3]; 300cGy) of the same compound?
Its MIG is 3.11.

And the MIP-1a ([3]; 300cGy)?
The MIP-1a was 5.42 and 8.81.

What about the MIP-2 ([3]; 300cGy) of the same compound?
Its MIP-2 is 16.

What about the PTN ([3]; 300cGy) of the same compound?
Its PTN is 10.6601 and 9.687 and 10.9496.

And the RANTES ([3]; 300cGy)?
The RANTES was 3.97.

And the TNF-a ([3]; 300cGy)?
Its TNF-a is 4.73.

And the VEGF ([3]; 300cGy)?
Its VEGF is 1.18.

And the “LIX levels following irradiation” value ([3]; BM KSL cells, 12 h after 300 cGy, 1 μg/mL DJ001)?
The value was “decreased LIX levels”.

What about the “other cytokines in vitro” value ([3]; BM KSL cells, 12 h culture, 1 μg/mL DJ001) of the same compound?
The value was “no effects on any other cytokines”.

And the IFN-g ([3]; NI (non-irradiated))?
The IFN-g was 0.77.

What about the IL-1a ([3]; NI (non-irradiated)) of the same compound?
Its IL-1a is 2.07.

What about the IL-1b ([3]; NI (non-irradiated)) of the same compound?
Its IL-1b is 1.39.

And the IL-2 ([3]; NI (non-irradiated))?
Its IL-2 is 2.9.

What about the IL-3 ([3]; NI (non-irradiated)) of the same compound?
Its IL-3 is 1.

And the IL-4 ([3]; NI (non-irradiated))?
The IL-4 was 0.44.

And the IL-5 ([3]; NI (non-irradiated))?
Its IL-5 is 2.67.

And the IL-6 ([3]; NI (non-irradiated))?
Its IL-6 is 0.77 and 1.04.

What about the IL-9 ([3]; NI (non-irradiated)) of the same compound?
Its IL-9 is 36.91.

What about the IL-10 ([3]; NI (non-irradiated)) of the same compound?
The IL-10 was 2.29.

What about the “IL-12(p40)” value ([3]; NI (non-irradiated)) of the same compound?
Its value is 1.13 and 2.12 and 1.6.

What about the “IL-12(p70)” value ([3]; NI (non-irradiated)) of the same compound?
The value was 3.42.

And the IL-13 ([3]; NI (non-irradiated))?
The IL-13 was 9.36.

And the IL-17 ([3]; NI (non-irradiated))?
The IL-17 was 1.92.

And the IP-10 ([3]; NI (non-irradiated))?
The IP-10 was 2.77.

What about the CXCL12 ([3]; NI (non-irradiated)) of the same compound?
Its CXCL12 is 0.

And the DKK ([3]; NI (non-irradiated))?
Its DKK is 0.

And the EGF ([3]; NI (non-irradiated))?
The EGF was 0.

And the Eotaxin ([3]; NI (non-irradiated))?
The Eotaxin was 2.69.

What about the G-CSF ([3]; NI (non-irradiated)) of the same compound?
The G-CSF was 0.01.

What about the GM-CSF ([3]; NI (non-irradiated)) of the same compound?
Its GM-CSF is 5.03.

What about the KC ([3]; NI (non-irradiated)) of the same compound?
Its KC is 1.04.

And the M-CSF ([3]; NI (non-irradiated))?
Its M-CSF is 1.85 and 2.71.

And the MCP-1 ([3]; NI (non-irradiated))?
Its MCP-1 is 4.52.

And the MIG ([3]; NI (non-irradiated))?
The MIG was 3.11.

And the MIP-1a ([3]; NI (non-irradiated))?
Its MIP-1a is 5.42 and 8.81.

What about the MIP-2 ([3]; NI (non-irradiated)) of the same compound?
The MIP-2 was 16.

And the PTN ([3]; NI (non-irradiated))?
The PTN was 11.0625 and 10.3876 and 11.8896.

And the RANTES ([3]; NI (non-irradiated))?
Its RANTES is 3.97.

And the TNF-a ([3]; NI (non-irradiated))?
The TNF-a was 4.73.

What about the VEGF ([3]; NI (non-irradiated)) of the same compound?
The VEGF was 1.18.
